Source: patent publication US4668621A, “Detecting blood clotting factors with immobilized fibrinogen and labeled fibrinogen” (Wake Forest University, priority 1985, dated 1987)
Blank lines part the entries; values can stand above or below the compound they belong to.

Key:
thrombin = target: T1, thrombin (Homo sapiens, UniProt P00734); assay: Inhibition of thrombin in the solid-phase thrombin assay; assay type: biochemical; settings: 80 min assay
T1 construct: additional factors necessary for cleavage of prothrombin to thrombin
Experimental: (§1) In the first assay, microtiter plates were coated with 150 μl per well of 50 μg/ml of fibrinogen in 10 mM Tris-acetate buffered saline, pH 7.6 (TABS) containing 10 mM EDTA overnight at 4° C. The solution was removed from the plate, and 100 μl of a 10 μg/ml solution of peroxidase-fibrinogen in 3.8 mg/ml bovine serum albumin (BSA) in TABS containing 10 mM calcium chloride was added to the well. 50 μl of thrombin diluted from 0.1 to 0.00078 NIH units/ml (30-0.25 ng/ml) was added to each well for various times from 0-160 min, after which the solution was washed from the plate. Peroxidase assay was performed using ortho-phenylenediamine as the indicator dye, with 11 min of incubation.
In the next assay, benzamidine and D-phenylalanyl-L-prolyl-L-arginine chloromethyl ketone (PPACK) were added to thrombin at the start of the assay. […] The percent inhibition can be calculated from the increased thrombin concentration required to obtain equivalent activity, as
% inhibition=100 * (1-To/Ti)
where To is the thrombin concentration yielding an O.D.=1 in the absence of inhibitor, and Ti is the thrombin concentration yielding an O.D.=1 in the presence of a given inhibitor concentration.

fibrinogen = assay: Thrombin assay: peroxidase-fibrinogen bound to fibrinogen-coated microtiter plate; assay type: biochemical, human; settings: for [Thrombin] for O.D. = 1: unit not printed here (preceding table: NIH units/ml)
Experimental: This was prepared by the method of Nakane and Kawaoi (J. Histochem. Cytochem (1974) 22:1084) using 40 mg of horseradish peroxidase and 300 mg of human fibrinogen. The molar ratio of peroxidase to fibrinogen in the final product was 0.39. This was diluted with unlabeled fibrinogen to a concentration of 0.72 mg/ml of fibrinogen with a molar ratio of 0.12 moles of peroxidase per mole of fibrinogen, stored in 50% glycerol at -20° C.
as §1, with “incubation. Optical density was measured at 490 nm using a microtiter plate reader, with the following results:” for “incubation.”
Not only the endpoint (O.D.>2), but also the partial reaction ([…])can be used as a measure of thrombin activity. The penultimate value prior to the endpoint, or an approximate extrapolation to the concentration of thrombin yielding an O.D. value of 1 can be used to standardize this assay. For the above experiment, this value is reached at thrombin concentrations of: […]

Compound: N=C(N)c1ccccc1 [Benzamidine, benzamidine]
% Inhibition (thrombin; [Benzamidine] 0.5 mM): 8% | % Inhibition (thrombin; [Benzamidine] 1 mM): 41% | % Inhibition (thrombin; [Benzamidine] 2 mM): 55% | % Inhibition (thrombin; [Benzamidine] 5 mM): 75% | % Inhibition (thrombin; [Benzamidine] 10 mM): 84% | % Inhibition (thrombin; [Benzamidine] 20 mM): 97%

Compound: N=C(N)NCCC[C@H](NC(=O)[C@@H]1CCCN1C(=O)[C@H](N)Cc1ccccc1)C(=O)CCl [PPACK, D-phenylalanyl-L-prolyl-L-arginine chloromethyl ketone]
% Inhibition (thrombin; [PPACK] .005 nM): 11% | % Inhibition (thrombin; [PPACK] .01 nM): 19% | % Inhibition (thrombin; [PPACK] .02 nM): 43% | % Inhibition (thrombin; [PPACK] .05 nM): 62% | % Inhibition (thrombin; [PPACK] .1 nM): 79% | % Inhibition (thrombin; [PPACK] .2 nM): 83% | % Inhibition (thrombin; [PPACK] .5 nM): 95%

[Thrombin] for O.D. = 1 (fibrinogen; incubation time 10 min): > 0.03 | [Thrombin] for O.D. = 1 (fibrinogen; incubation time 20 min): 0.02 | [Thrombin] for O.D. = 1 (fibrinogen; incubation time 40 min): 0.005 | [Thrombin] for O.D. = 1 (fibrinogen; incubation time 80 min): 0.002 | [Thrombin] for O.D. = 1 (fibrinogen; incubation time 160 min): 0.0008 | Optical density at 490 nm (fibrinogen; thrombin .00026 NIH units/ml, incubation 0 min): 0.20 | Optical density at 490 nm (fibrinogen; thrombin .00026 NIH units/ml, incubation 10 min): 0.24 | Optical density at 490 nm (fibrinogen; thrombin .00026 NIH units/ml, incubation 20 min): 0.19 | Optical density at 490 nm (fibrinogen; thrombin .00026 NIH units/ml, incubation 40 min): 0.25 | Optical density at 490 nm (fibrinogen; thrombin .00026 NIH units/ml, incubation 80 min): 0.32 | Optical density at 490 nm (fibrinogen; thrombin .00026 NIH units/ml, incubation 160 min): 0.24 | Optical density at 490 nm (fibrinogen; thrombin .0005 NIH units/ml, incubation 0 min): 0.21 | Optical density at 490 nm (fibrinogen; thrombin .0005 NIH units/ml, incubation 10 min): 0.21 | Optical density at 490 nm (fibrinogen; thrombin .0005 NIH units/ml, incubation 20 min): 0.16 | Optical density at 490 nm (fibrinogen; thrombin .0005 NIH units/ml, incubation 40 min): 0.14 | Optical density at 490 nm (fibrinogen; thrombin .0005 NIH units/ml, incubation 80 min): 0.18 | Optical density at 490 nm (fibrinogen; thrombin .0005 NIH units/ml, incubation 160 min): 0.60 | Optical density at 490 nm (fibrinogen; thrombin .0010 NIH units/ml, incubation 0 min): 0.22 | Optical density at 490 nm (fibrinogen; thrombin .0010 NIH units/ml, incubation 10 min): 0.15 | Optical density at 490 nm (fibrinogen; thrombin .0010 NIH units/ml, incubation 20 min): 0.18 | Optical density at 490 nm (fibrinogen; thrombin .0010 NIH units/ml, incubation 40 min): 0.23 | Optical density at 490 nm (fibrinogen; thrombin .0010 NIH units/ml, incubation 80 min): 0.37 | Optical density at 490 nm (fibrinogen; thrombin .0010 NIH units/ml, incubation 160 min): 1.55 | Optical density at 490 nm (fibrinogen; thrombin .0021 NIH units/ml, incubation 0 min): 0.25 | Optical density at 490 nm (fibrinogen; thrombin .0021 NIH units/ml, incubation 10 min): 0.18 | Optical density at 490 nm (fibrinogen; thrombin .0021 NIH units/ml, incubation 20 min): 0.18 | Optical density at 490 nm (fibrinogen; thrombin .0021 NIH units/ml, incubation 40 min): 0.18 | Optical density at 490 nm (fibrinogen; thrombin .0021 NIH units/ml, incubation 80 min): 1.02 | Optical density at 490 nm (fibrinogen; thrombin .0021 NIH units/ml, incubation 160 min): > 2 | Optical density at 490 nm (fibrinogen; thrombin .0042 NIH units/ml, incubation 0 min): 0.23 | Optical density at 490 nm (fibrinogen; thrombin .0042 NIH units/ml, incubation 10 min): 0.22 | Optical density at 490 nm (fibrinogen; thrombin .0042 NIH units/ml, incubation 20 min): 0.26 | Optical density at 490 nm (fibrinogen; thrombin .0042 NIH units/ml, incubation 40 min): 0.87 | Optical density at 490 nm (fibrinogen; thrombin .0042 NIH units/ml, incubation 80 min): > 2 | Optical density at 490 nm (fibrinogen; thrombin .0042 NIH units/ml, incubation 160 min): > 2 | Optical density at 490 nm (fibrinogen; thrombin .0083 NIH units/ml, incubation 0 min): 0.30 | Optical density at 490 nm (fibrinogen; thrombin .0083 NIH units/ml, incubation 10 min): 0.42 | Optical density at 490 nm (fibrinogen; thrombin .0083 NIH units/ml, incubation 20 min): 0.40 | Optical density at 490 nm (fibrinogen; thrombin .0083 NIH units/ml, incubation 40 min): 1.67 | Optical density at 490 nm (fibrinogen; thrombin .0083 NIH units/ml, incubation 80 min): > 2 | Optical density at 490 nm (fibrinogen; thrombin .0083 NIH units/ml, incubation 160 min): > 2 | Optical density at 490 nm (fibrinogen; thrombin .017 NIH units/ml, incubation 0 min): 0.31 | Optical density at 490 nm (fibrinogen; thrombin .017 NIH units/ml, incubation 10 min): 0.30 | Optical density at 490 nm (fibrinogen; thrombin .017 NIH units/ml, incubation 20 min): 0.91 | Optical density at 490 nm (fibrinogen; thrombin .017 NIH units/ml, incubation 40 min): > 2 | Optical density at 490 nm (fibrinogen; thrombin .017 NIH units/ml, incubation 80 min): > 2 | Optical density at 490 nm (fibrinogen; thrombin .017 NIH units/ml, incubation 160 min): > 2 | Optical density at 490 nm (fibrinogen; thrombin .033 NIH units/ml, incubation 0 min): 0.41 | Optical density at 490 nm (fibrinogen; thrombin .033 NIH units/ml, incubation 10 min): 0.52 | Optical density at 490 nm (fibrinogen; thrombin .033 NIH units/ml, incubation 20 min): 1.24 | Optical density at 490 nm (fibrinogen; thrombin .033 NIH units/ml, incubation 40 min): > 2 | Optical density at 490 nm (fibrinogen; thrombin .033 NIH units/ml, incubation 80 min): > 2 | Optical density at 490 nm (fibrinogen; thrombin .033 NIH units/ml, incubation 160 min): > 2
Compound: Thrombin
